Measurements published in the supplement of paper PMC11451515.

Experiments:
Conditions in all cases: 48 h
SEM cells [1] = assay: AUC of viability dose-response curve (% viability x log10 dose units); higher = less sensitive
Method in brief: (§1)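 Leukemia cells adapted to each medium were seeded in 1536-well plates (500 or 1000 cells/well) and given library compounds in DMSO for 48 h at 37°C. The 11 threefold doses spanned 47 μM to 0.79 nM, and CellTiter-Glo One luminescence was normalised per plate to DMSO and cell-free wells before four-parameter log-logistic fitting on log10 dose. Area under the curve was integrated with the trapezoidal rule, scaling curves above full viability and removing curves that failed quality control.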

P12-Ichikawa [2] = assay: as above
Method in brief: as §1

NOMO1 [3] = assay: as above
Method in brief: as §1

SEM cells [4] = assay: cell viability relative to DMSO control; higher = less cytotoxic
Method in brief: (§2)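 Viability was expressed as a per-plate percentage of DMSO wells, with cell-free wells as background. Leukemia cells (NOMO1 or SEM at 500 cells/well, P12-Ichikawa at 1000 cells/well) were adapted for at least four passages in each medium and seeded in 1536-well plates (5 μl). Library compounds in DMSO were pin-dosed over an 11-point threefold series from 47 μM to 0.79 nM, and CellTiter-Glo One luminescence was read after 48 h at 37°C.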

P12-Ichikawa [5] = assay: as above
Method in brief: as §2

NOMO1 [6] = assay: as above
Method in brief: as §2

CC(O)(C#Cc1ccc2c(c1)N(c1nc(N)ncc1Cl)CC2)c1nccs1 (stereo unspecified)
AUC of viability dose-response curve
Conditions | NOMO1 [3] | P12-Ichikawa [2] | SEM cells [1]
HPLM + 10% dialyzed FBS | 455 | 477 | 469
RPMI 5 mM glucose + 10% FBS | 467 | 468 | 430
RPMI 5 mM glucose + 10% dialyzed FBS | 468 | 464 | 465

cell viability [%]
Conditions | NOMO1 [6] | P12-Ichikawa [5] | SEM cells [4]
HPLM + 10% dialyzed FBS, 0.000781 µM | 98.7 | 111 | 97.3
HPLM + 10% dialyzed FBS, 0.00234 µM | 119 | 123 | 110
HPLM + 10% dialyzed FBS, 0.00702 µM | 132 | 121 | 113
HPLM + 10% dialyzed FBS, 0.0211 µM | 104 | 71 | 100
HPLM + 10% dialyzed FBS, 0.0632 µM | 130 | 116 | 125
HPLM + 10% dialyzed FBS, 0.19 µM | 131 | 123 | 107
HPLM + 10% dialyzed FBS, 0.569 µM | 130 | 126 | 109
HPLM + 10% dialyzed FBS, 1.71 µM | 134 | 121 | 120
HPLM + 10% dialyzed FBS, 5.12 µM | 152 | 117 | 111
HPLM + 10% dialyzed FBS, 15.4 µM | 136 | 116 | 111
HPLM + 10% dialyzed FBS, 46.1 µM | 87.5 | 96.8 | 72.4
RPMI 5 mM glucose + 10% FBS, 0.000781 µM | – | 107 | 88.2
RPMI 5 mM glucose + 10% FBS, 0.00234 µM | – | 118 | 87.3
RPMI 5 mM glucose + 10% FBS, 0.00702 µM | – | 123 | 107
RPMI 5 mM glucose + 10% FBS, 0.0211 µM | – | 79.2 | 62.8
RPMI 5 mM glucose + 10% FBS, 0.0632 µM | – | 127 | 92.9
RPMI 5 mM glucose + 10% FBS, 0.19 µM | – | 115 | 97.7
RPMI 5 mM glucose + 10% FBS, 0.569 µM | – | 121 | 102
RPMI 5 mM glucose + 10% FBS, 1.71 µM | – | 127 | 101
RPMI 5 mM glucose + 10% FBS, 5.12 µM | – | 126 | 102
RPMI 5 mM glucose + 10% FBS, 15.4 µM | – | 115 | 84.5
RPMI 5 mM glucose + 10% FBS, 46.1 µM | – | 74.3 | 43.5
RPMI 5 mM glucose + 10% dialyzed FBS, 0.000781 µM | 124 | – | 117
RPMI 5 mM glucose + 10% dialyzed FBS, 0.00234 µM | 113 | – | 120
RPMI 5 mM glucose + 10% dialyzed FBS, 0.00702 µM | 136 | – | 119
RPMI 5 mM glucose + 10% dialyzed FBS, 0.0211 µM | 131 | – | 82.5
RPMI 5 mM glucose + 10% dialyzed FBS, 0.0632 µM | 135 | – | 107
RPMI 5 mM glucose + 10% dialyzed FBS, 0.19 µM | 135 | – | 103
RPMI 5 mM glucose + 10% dialyzed FBS, 0.569 µM | 135 | – | 117
RPMI 5 mM glucose + 10% dialyzed FBS, 1.71 µM | 127 | – | 123
RPMI 5 mM glucose + 10% dialyzed FBS, 5.12 µM | 138 | – | 114
RPMI 5 mM glucose + 10% dialyzed FBS, 15.4 µM | 147 | – | 109
RPMI 5 mM glucose + 10% dialyzed FBS, 46.1 µM | 110 | – | 59.2
